From patent US7786083B2, “Metastin derivatives and use thereof” (Takeda Pharmaceutical Company Limited, priority 2006, dated 2010)
[ ]: non-standard residue; d: D form. Pro(trans-4-F) = O=C(O)[C@@H]1C[C@@H](F)CN1; Arg(Me) = CNC(=N)NCCC[C@H](N)C(=O)O; Ala(cPr) = N[C@@H](CC1CC1)C(=O)O; Cha = N[C@@H](CC1CCCCC1)C(=O)O

Tested on: metastin receptors
Test: Measurement of agonist activity by assaying changes in intracellular calcium ion level (FLIPR, Fluo-4 NW)
Format: cell-based, human
Details: specific activity of the EC50 of a test compound based on the EC50 of Metastin (45-54), metastin receptor expression CHO cells
In short: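 CHO/dhfr⁻ cells stably expressing human or rat metastin receptor, seeded 3×10^4/well for 24 h, loaded with Fluo-4 NW 30 min at 37 °C in HBSS with 0.1% BSA, 20 mM HEPES pH 7.4 and 1 mM probenecid. Compound-stimulated intracellular calcium change read on FLIPR.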

## des(1)-Ac-[D-Tyr2,Pro(4F)3,Thr5,Cha6,Ala(cPr)8,Arg(Me)9,Trp10]MS10 (Ac-[dY][Pro(trans-4-F)]NT[Cha]G[Ala(cPr)][Arg(Me)]W-NH2; SMILES CNC(=N)NCCC[C@H](NC(=O)[C@H](CC1CC1)NC(=O)CNC(=O)[C@H](CC1CCCCC1)NC(=O)[C@@H](NC(=O)[C@H](CC(N)=O)NC(=O)[C@@H]1C[C@@H](F)CN1C(=O)[C@@H](Cc1ccc(O)cc1)NC(C)=O)[C@@H](C)O)C(=O)N[C@@H](Cc1c[nH]c2ccccc12)C(N)=O) [Compound No. 959]
  Specific Activity: 0.4
